Results on three molecules are retold here after article PMC9603588, “Structural Basis of Peptide-Based Antimicrobial Inhibition of a Resistance-Nodulation-Cell Division Multidrug Efflux Pump” (Microbiology Spectrum, 2022).

In brackets after ≈: the same amount, converted by molar mass. Read-outs that look alike come from different tables or passages of the source.

The subject of one experiment is E. coli K-12. Kind of experiment: MIC of Nov for E. coli K-12. Type of experiment: cell-based. Conditions: Escherichia coli, K12.
The subject of a further experiment is N. gonorrhoeae WHO X. Kind of experiment: Nov MIC against gonococci by agar dilution, WHO X. The format is cell-based. Conditions: Neisseria gonorrhoeae, strain WHO X. On the procedure: (§1) The MICs for Nov were determined by agar dilution as described previously ([53]). The construction of the mtrD::kan transformants was described previously ([3], [61]); note that WHO X was originally termed H041.
On the technique in general: Agar dilution tests growth on a series of plates holding different concentrations.

Another experiment relates to E. coli K-12 ΔtolC::kan. Description: MIC of Nov for E. coli K-12 ΔtolC::kan. The conditions noted are these: Escherichia coli, read-out: MIC of Nov. The format is cell-based.
Experiment [1] concerns E. coli BL21(DE3) ΔacrB/pACYCΩmtrCDE. Description: MIC of antibiotics for E. coli BL21(DE3) ΔacrB/pACYCΩmtrCDE. The format is cell-based. The conditions noted are these: Escherichia coli.
The subject of experiment [2] is N. gonorrhoeae FA19 mtrD::kan. Description: Nov MIC against gonococci by agar dilution, FA19 mtrD::kan. Type of experiment: cell-based. The conditions noted are these: Neisseria gonorrhoeae. On the procedure: as §1
For another experiment, the system named is P. aeruginosa. Description: MIC of Nov for P. aeruginosa. The format is cell-based. The conditions noted are these: Pseudomonas aeruginosa.
The subject of another experiment is N. subflava ATCC 49275. Kind of experiment: MIC of Nov for N. subflava. The format is cell-based. Conditions: Neisseria subflava, ATCC49275.
Another experiment relates to N. gonorrhoeae FA19. Kind of experiment: Nov MIC against gonococci by agar dilution, FA19. The format is cell-based. The conditions noted are these: Neisseria gonorrhoeae, strain FA19. On the procedure: as §1
The subject of experiment [3] is N. gonorrhoeae WHO X mtrD::kan. Kind of experiment: Nov MIC against gonococci by agar dilution, WHO X mtrD::kan. The format is cell-based. The conditions noted are these: Neisseria gonorrhoeae. The procedure:
as §1

The subject of experiment [4] is S. enterica subsp. enterica. Kind of experiment: MIC of Nov for S. enterica subsp. enterica. Type of experiment: cell-based. Conditions: Salmonella enterica.
The target in experiment [5] is MtrD_(CR103) multidrug efflux pump (MtrD from N. gonorrhoeae strain CR.103) (Neisseria gonorrhoeae strain CR.103) (UniProt Q51073). Kind of experiment: cryo-EM structure; 2 μM MtrD_(CR103)-nanodisc sample incubated with 100 μM CASP, 20 μM Col or 50 μM LL for 2 h; single-particle cryo-EM.

The MIC is the lowest concentration found to suppress growth. For `CO[C@@H]1[C@@H](OC(N)=O)[C@@H](O)[C@H](Oc2ccc3c(O)c(NC(=O)c4ccc(O)c(CC=C(C)C)c4)c(=O)oc3c2C)OC1(C)C` [Nov, novobiocin], the MIC with E. coli K-12 was more than 128 µg/mL; against N. gonorrhoeae WHO X, 1 µg/mL (≈ 1.63 µM); in the experiment with E. coli K-12 ΔtolC::kan, 4 µg/mL; in experiment [1] (read-out: MIC for Nov), 125 µg/mL; in experiment [2] it was 0.06 µg/mL (≈ 0.0979 µM); in the experiment on P. aeruginosa, more than 1000 µg/mL. Moreover, the MIC came to 1 µg/mL with N. subflava ATCC 49275, 0.25 µg/mL (≈ 0.408 µM) in the experiment with N. gonorrhoeae FA19, 0.25 µg/mL (≈ 0.408 µM) in experiment [3] and 512 µg/mL in experiment [4].

Broadly, the stoichiometry N is a count of units in the complex or per binding partner. On to “MtrD_(CR103) multidrug efflux pump (MtrD from N. gonorrhoeae strain CR.103) (from UniProt Q51073 1-1067) (natural protein)”, for which the stoichiometry N in [5] is 3.

For the molecule `[H]/N=C(/N)N[C@H]1[C@H](O)[C@@H](O)[C@H](O[C@@H]2O[C@@H](C)[C@](O)(C=O)[C@H]2O[C@@H]2O[C@@H](CO)[C@H](O)[C@@H](O)[C@@H]2NC)[C@@H](N/C(N)=N\[H])[C@@H]1O` [streptomycin], the minimal inhibitory concentration (MIC) in experiment [1] (read-out: MIC of streptomycin) was determined as 8 µg/mL.
